Values of other authors, collected in patent publication US20050169991A1, “Sustained release torsemide dosage forms” (Penwest Pharmaceuticals Co., priority 2003, published 2005).

Conditions: in vivo

half-life: 6 h
Compound: Cc1cccc(Nc2ccncc2S(=O)(=O)NC(=O)NC(C)C)c1 [Torsemide]
